Results from patent EP1501797B1, “3-(SUBSTITUTED AMINO)-1H-INDOLE-2-CARBOXYLIC ACID ESTER AND 3-(SUBSTITUTED AMINO)-BENZO[B]THIOPHENE-2-CARBOXYLIC ACID ESTER DERIVATIVES AS INTERLEUKIN-4 GENE EXPRESSION INHIBITORS” (Aventis Pharmaceuticals Inc., priority 2002, dated 2003).

Tests used:
[1] = system: IL-4; assay: Human primary Th2 cells, anti-CD3/anti-CD28 activated, IL-4 ELISA; type: cell-based
Protocol: Briefly, CD4^+CD45RA^+ T cells, isolated from donor peripheral blood mononuclear cells of healthy donors, are educated in the presence of anti-CD3/CD28 antibodies and various growth factors to obtain either a Thl-like or Th2-like phenotypes as determined by the known cytokine profiles of these two cell types.
Peripheral blood mononuclear cells (PBMC) are prepared from human blood by Ficoll-Hypacque (Pharmacia). The cells are washed two times in Hanks balanced salt solution (HBSS) and counted.
Naive T cells (CD4^+/CD45RA ) are prepared by negative selection method using following antibodies and Dynabeads: anti-CD8, anti-HLA-DR, (where HLA means human leucocyte antigen) anti-CD14, anti-CD16, anti-CD19, anti-CD45RO antibodies (all from R&D Systems, 1-2 µg/ml) are added to the cells, and the cells are kept on ice for 30 min. The cells are washed two times in HBSS, and goat anti- mouse Ig-beads, (bead:target ratio, 5:1) are added. The cells and beads are slowly rotated at 4°C for 20 min. (following the protocol supplied from Dynal). The supernatant is removed and fresh goat anti-mouse Ig-beads are added to the supernatant, which is slowly rotated at 4°C for 20 min. The cells are counted and phenotypically characterized by flow cytometric analysis.
CD4^+/CD45RA^+ cells at a density of 10^6/ml in RPMI, is prepared and added to RPMI medium containing 10% Hyclone serum/ glutamine and 1-2 µg/ml anti-CD28 Ab. The cells are split in two aliquots. For Th1 cells: anti-IL-4 Ab (1-2 µg/ml), IFN-γ (1 µg/ml, or 5000 units/ml) are added to the wells. For Th2 cells: IL-4 (100-200 ng/ml), anti-IFN-γ neutralizing Ab (1-2 µg/ml), anti-IL-12 neutralizing Ab (1-2 µg/ml) are added into the wells. […] The cells are transferred to fresh wells and grown in 200 units/ml IL-2 for 2 weeks by feeding them every other day with IL-2 containing medium and splitting the cultures 1:2 or 1:3 as needed. The degree of polarization is determined by intracellular staining of cells with anti-IFN-γ and anti-IL-4 antibodies from Pharmingen, and using flow cytometry from Becton Dickinson (BD), according to manufacturers description. The cells are stimulated with PHA and alloantigens at day 14 and 28 as described below. Eight days after the second allostimulation the cells can be used for compound screening or frozen for future use. For compound testing, large quantities of Th1 and Th2 cells derived from a given donor (NYTh1 and NYTh2) were expanded and frozen as aliquots in liquid nitrogen. The cells are thawed and cultured as and when needed. The thawed cells are stimulated with alloantigen/PHA combination. The cells are used for compound screening after 8-10 days in culture.
Re-stimulation by allogeneic cells: Human PBMCs, to be used as alloantigens, are isolated from freshly drawn blood by Ficoll separation. […] Cells are counted and diluted to a final concentration of 2 x 10^6/ml in medium containing 10 µg/ml PHA and 200 units/ml IL-2.
Ninetysix well Falcon tissue culture plates (Fisher Scientific) are coated with 100 microliters per well of 10 µg/ml anti-CD3 (PharMingen) antibody in phosphate buffered saline (PBS) and stored at 4°C one day before the experiment.
On the day of assay, anti-CD3 antibody coated plates are washed with PBS once to remove all soluble anti-CD3 antibody. […] All compounds and controls are assayed in triplicates.

[2] = in vitro; details: mouse, swiss 3t3 fibroblasts
Protocol: (§1) A third assay utilized in the present invention involves an in vitro cytotoxicity assay. This assay is used to further characterize the compounds in order to assess toxic activities of compounds on contact inhibited, non-dividing 3T3 fibroblasts. Other toxicity assays may be used.
(§2) Contact inhibited Swiss 3T3 fibroblasts are purchased from ATCC. The cells are maintained in 1640 RPMI supplemented with 10% fetal bovine serum (Gibco).
(§3) On day of assay, cells are detached from flasks by trypsinization, washed in medium and counted. 100 microliters of 2.5 x 10^4 cells per well are plated into Falcon brand 96 well tissue culture plates and cells incubated at 37°C in presence of 5% CO2 for 2 days or until confluent.
(§4) […] All compound dilutions are assayed in triplicate. […] Cells are returned to the incubator for 2 days.
(§5) After 2 day incubation, the 3T3 cells are assayed for viability using an MTS Assay Kit (Promega). Media is added to blank wells for background calculations. After 2 hours incubation in kit reagent, the optical density at 490 nm for each compound and control is determined by plate reader.
(§6) Results are expressed as percent cytotoxicity, i.e., (mean OD of compound wells - background OD)/ (mean OD of controls - background).
(§7) Note that starting concentration of CsA was 1 µM. […]

[3] = system: Swiss 3T3 fibroblasts; assay: in vitro
Protocol: as §1, §2, §3, §4, §5, §6, §7

[4] = system: Anti-OVA IgE; assay: OVA induced allergen specific IgE in mice; type: in vivo; details: bled at day 15, vehicle 150.8
Protocol: Female mice (5-8 week age, Balb/c, Charles River) were used in this study. Ovalbumin (Sigma) was adsorbed to Aluminum Hydroxide Adsorptive Gel, Inter, and injected 10 µg/0.2ml/mouse intraperitoneally on experimental day 0 and day 7. […] They were bled at day 15. Serum ovalbumin specific IgE levels were determined by standard ELISA using a goat anti-mouse IgE antibody labeled with alkaline phosphatase. The anti-OVA titers were determined by making serial dilutions of the test sera and comparing with vehicle control.

## O=C(O)c1[nH]c2ccccc2c1Nc1ccncc1 [Example 28, 3-(4-Pyridinylamino)-1H-indole-2-carboxylic acid]
[1]; 10 µM, 18 hrs, ELISA of culture supernatants, stimulated control 625.0+/- 23
  IL-4 PROTEIN Exp #2: 286.2 ± 19 pg/mL
[1]; Homo sapiens, 0.01 µM, 48 hr, read-out: IL-4 (% control) mean
  activity at 0.01 µM: 102%
[1]; Homo sapiens, 0.03 µM, 48 hr, read-out: IL-4 (% control) mean
  activity at 0.03 µM: 65.3%
[1]; Homo sapiens, 0.1 µM, 48 hr, read-out: IL-4 (% control) mean
  activity at 0.1 µM: 59.8%
[1]; Homo sapiens, 0.3 µM, 48 hr, read-out: IL-4 (% control) mean
  activity at 0.3 µM: 45%
[1]; Homo sapiens, 1 µM, 48 hr, read-out: IL-4 (% control) mean
  activity at 1 µM: 42.5%
[1]; Homo sapiens, 3 µM, 48 hr, read-out: IL-4 (% control) mean
  activity at 3 µM: 36.4%
[1]; Homo sapiens, 10 µM, 48 hr, read-out: IL-4 (% control) mean
  activity at 10 µM: 30.8%
[1]; Human primary Th2 cells, combined data from 10 different experiments
  IC50: 0.24 µM
[1]; Human primary Th2 cells, ratio of IC50
  IFN-γ/ IL-4 Ratio: > 41
[2]
  viability at 48 h, 0.001 µM: 124%
  viability at 48 h, 0.01 µM: 112%
  viability at 48 h, 0.03 µM: 111%
  viability at 48 h, 0.1 µM: 111%
  viability at 48 h, 3 µM: 110%
  viability at 48 h, 10 µM: 99.1%
[3]
  toxic effects on the viability of quiescent 3T3 cells (in words): no toxic effects
[4]; 3 mg/kg intraperitoneally once a day from day 6 to day 14
  Anti-OVA IgE: 41.8
[4]; 10 mg/kg intraperitoneally once a day from day 6 to day 14
  Anti-OVA IgE: 45.6
